Results on 2 compounds are retold here after patent US11131677B2 (University of Washington, priority 2018, dated 2021).

For data set [1] the following is noted: oral T, humans; cited from earlier work.
The target of the next data set is T1, UGT2B17 (Homo sapiens, UniProt O75795).
T1 sequence (O75795 24-530): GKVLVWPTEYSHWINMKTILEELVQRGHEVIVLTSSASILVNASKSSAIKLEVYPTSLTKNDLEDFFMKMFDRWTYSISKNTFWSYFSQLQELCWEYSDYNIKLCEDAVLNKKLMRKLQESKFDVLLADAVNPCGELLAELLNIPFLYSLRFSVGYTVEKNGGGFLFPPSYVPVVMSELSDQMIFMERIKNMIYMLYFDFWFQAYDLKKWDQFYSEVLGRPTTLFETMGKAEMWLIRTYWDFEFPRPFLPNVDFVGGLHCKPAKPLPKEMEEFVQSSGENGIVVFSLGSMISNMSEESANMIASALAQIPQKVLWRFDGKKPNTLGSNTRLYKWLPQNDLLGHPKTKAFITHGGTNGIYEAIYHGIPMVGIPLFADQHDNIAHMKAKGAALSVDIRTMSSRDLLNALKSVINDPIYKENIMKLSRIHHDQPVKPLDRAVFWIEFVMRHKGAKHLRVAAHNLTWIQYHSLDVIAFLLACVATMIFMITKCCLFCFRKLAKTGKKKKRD
The conditions noted are these: scaled by absolute UGT2B abundance in the intestine.

Data set [2] is described as follows: Oral testosterone pharmacokinetics and serum metabolite profile (LC-MS/MS) in men with acyline-induced experimental hypogonadism, with and without dutasteride. The format is in vivo, human. The conditions noted are these: for CL/F: male, human, oral; for CL/F / AUC 0-24 h / Cmax / Tmax / t½: serum. On the procedure:
T emulsion in sesame oil, mixed with milk, was administered orally to human subjects with acyline-induced experimental hypogonadism. The blood samples were collected and the serum was isolated and stored in −80° C. Steroids and their metabolites were extracted from serum using protein precipitation followed by solid-phase extraction and analyzed by UPLC coupled with SCIEX 6500 MS/MS.
Clinical study design is discussed below. All subjects provided written, informed consent prior to any study procedures. The study was approved by the University of Washington (UW) Investigational Review Board Committee.
While study was conducted with 200, 400 and 800 mg T dose, only T200 and T800 were quantified. […] Samples were mixed for 1 min by vortex mixing, and then centrifuged for 10 min at 3500×g at 4° C. […] Samples (2 mL) were loaded onto the cartridges and flow through was discarded.
Data were acquired by Analyst 1.6 software.

Another data set relates to T production. The conditions noted are these: normal men, single injection 300 μg/kg subcutaneous; cited from earlier work.

One may read the CL/F as clearance divided by bioavailability, as obtained after extravascular dosing. One may read the Cmax as the highest concentration seen after dosing. As a reminder, the Tmax is the time from dosing to the highest level. Broadly, the t½ is the time needed for the level to fall by half in the phase considered.

Non-standard residues stand in square brackets, D forms with d. Residues, ends and D or L forms follow the SMILES beside them. dPhe(4-NH2) = Nc1ccc(C[C@@H](N)C(=O)O)cc1; dPhe(4-Cl) = N[C@H](Cc1ccc(Cl)cc1)C(=O)O; Phe(4-NH2) = Nc1ccc(C[C@H](N)C(=O)O)cc1; d2Nal = N[C@H](Cc1ccc2ccccc2c1)C(=O)O; Lys(iPr) = CC(C)NCCCC[C@H](N)C(=O)O; d3Pal = N[C@H](Cc1cccnc1)C(=O)O

As for `C[C@]12CC[C@H]3[C@@H](CCC4=CC(=O)CC[C@@]43C)[C@@H]1CC[C@@H]2O` [T, Testosterone, reference compound], in data set [1], the Oral bioavailability is listed as 2-8%. Moreover, the “Contribution of UGT2B17 to intestinal glucuronidation” value on UGT2B17 is on record as 100%. For the same compound, the “Change in serum T levels with dutasteride” value in data set [2] (200 mg T dose) is reported as “no significant increase”. Further, the “Increase in circulating T concentrations” value in data set [2] (4-fold increase in dose (200 to 800 mg)) stood at 2 fold. Also, the CL/F in data set [2] (200 mg, T200) was 106000 mL/min; in data set [2] (800 mg, T800) it was 259000 mL/min; in data set [2] (T200 + D) it was 120000 mL/min; in data set [2] (T800 + D), 147000 mL/min. For the same compound, the “AUC 0-24 h” value in data set [2] (T200) amounted to 81.6 nmol·h/L; in data set [2] (T200 + D), 84.7 nmol·h/L; in data set [2] (T800) it was 168.9 nmol·h/L; in data set [2] (T800 + D), 293.8 nmol·h/L. The Cmax turned out to be 6 nM in data set [2] (T200), 8.8 nM in data set [2] (T200 + D), 16.8 nM in data set [2] (T800) and 33 nM in data set [2] (T800 + D). The time of peak concentration (Tmax) in data set [2] (T200) came out at 4 h; in data set [2] (T800 + D) it was 2 h. Besides, the t½ in data set [2] (T200 (200 mg oral T)) is on record as 12.0 h; in data set [2] (T200 + D (200 mg oral T with dutasteride)), 7.0 h; in data set [2] (T800 (800 mg oral T)), 5.3 h; in data set [2] (T800 + D (800 mg oral T with dutasteride)) it was 5.7 h.

On to `CC(=O)Nc1ccc(C[C@H](NC(=O)[C@H](CO)NC(=O)[C@@H](Cc2cccnc2)NC(=O)[C@@H](Cc2ccc(Cl)cc2)NC(=O)[C@@H](Cc2ccc3ccccc3c2)NC(C)=O)C(=O)N[C@H](Cc2ccc(NC(C)=O)cc2)C(=O)N[C@@H](CC(C)C)C(=O)N[C@@H](CCCCNC(C)C)C(=O)N2CCC[C@H]2C(=O)N[C@H](C)C(N)=O)cc1` [acyline] (Ac-[d2Nal][dPhe(4-Cl)][d3Pal]S[Phe(4-NH2)](Ac)[dPhe(4-NH2)](Ac)L[Lys(iPr)]P[dA]-NH2), for which the “Duration of suppression of T production” value in the data set with T production was ≥ 15 days.
